Reference: the supplement of paper PMC10307832

What was measured:
Experiment in all cases: relative viability (nuclei count vs DMSO), 5 days (fraction); higher = more cells survive
[1] = compound: CC[C@H](C)N1C=C(C2=C(C=C(C=C21)C3=CN=C(C=C3)N4CCNCC4)C(=O)NCC5=C(C=C(NC5=O)C)C)C [GSK126] + COc1cccc2cc(-c3nc([C@H]4CC[C@H](C(=O)O)CC4)n4ncnc(N)c34)[nH]c12 [OSI-027] (partner 0.5 µM)
Summary of the method: (§1)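 Lung cancer cell lines were pin-tool dosed in 1536-well plates on the day after seeding, with either a lone drug or a fixed anchor-drug dose plus five library-drug doses (not always all listed) in √10 steps. Nuclei were counted on 4× images after 5 days. Relative viability is the ratio of treated-well to vehicle-well nuclei counts, with each value a median of duplicate plates.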

[2] = compound: NS(=O)(=O)OC[C@@H]1C[C@@H](n2ccc3c(N[C@H]4CCc5ccccc54)ncnc32)C[C@@H]1O [MLN4924] + CC(=O)c1c(C)c2cnc(Nc3ccc(N4CCNCC4)cn3)nc2n(C2CCCC2)c1=O [Palbociclib] (partner 0.5 µM)
Summary of the method: as §1

[3] = compound: NS(=O)(=O)OC[C@@H]1C[C@@H](n2ccc3c(N[C@H]4CCc5ccccc54)ncnc32)C[C@@H]1O [MLN4924] + COc1cc2c(Oc3ccc(NC(=O)C4(C(=O)Nc5ccc(F)cc5)CC4)cc3F)ccnc2cc1OCCCN1CCOCC1 [Foretinib] (partner 0.25 µM)
Summary of the method: as §1

[4] = compound: NS(=O)(=O)OC[C@@H]1C[C@@H](n2ccc3c(N[C@H]4CCc5ccccc54)ncnc32)C[C@@H]1O [MLN4924] + CS(=O)(=O)N1CCN(Cc2cc3nc(-c4cccc5[nH]ncc45)nc(N4CCOCC4)c3s2)CC1 [Pictilisib] (partner 1 µM)
Summary of the method: as §1

| Cell Line | relative viability ([1]; first compound 0.08 µM) | relative viability ([1]; first compound 0.253 µM) | relative viability ([1]; first compound 0.8 µM) | relative viability ([1]; first compound 2.53 µM) | relative viability ([1]; first compound 8 µM) | relative viability ([2]; first compound 0.04 µM) | relative viability ([2]; first compound 0.1265 µM) | relative viability ([2]; first compound 0.4 µM) | relative viability ([2]; first compound 1.265 µM) | relative viability ([2]; first compound 4 µM) | relative viability ([3]; first compound 0.04 µM) | relative viability ([3]; first compound 0.1265 µM) | relative viability ([3]; first compound 0.4 µM) | relative viability ([3]; first compound 1.265 µM) | relative viability ([3]; first compound 4 µM) | relative viability ([4]; first compound 0.04 µM) | relative viability ([4]; first compound 0.1265 µM) | relative viability ([4]; first compound 0.4 µM) | relative viability ([4]; first compound 1.265 µM) | relative viability ([4]; first compound 4 µM) |
| --- | --- | --- | --- | --- | --- | --- | --- | --- | --- | --- | --- | --- | --- | --- | --- | --- | --- | --- | --- | --- |
| NCI-H647 | 0.69 | 0.528 | 0.63 | 0.649 | 0.692 | 0.22 | 0.264 | 0.0524 | 0.029 | 0.0424 | 0.818 | 0.848 | 0.188 | 0.0561 | 0.0661 | 0.318 | 0.469 | 0.274 | 0.0538 | 0.0717 |
| NCI-H650 | 0.49 | 0.529 | 0.489 | 0.497 | 0.583 | 0.307 | 0.182 | 0.159 | 0.136 | 0.166 | 0.863 | 0.499 | 0.341 | 0.197 | 0.191 | 0.79 | 0.508 | 0.335 | 0.208 | 0.214 |
| NCI-H661 | 0.769 | 0.737 | 0.762 | 0.746 | 0.74 | 0.421 | 0.427 | 0.34 | 0.292 | 0.366 | 0.902 | 0.776 | 0.67 | 0.393 | 0.399 | 0.414 | 0.567 | 0.482 | 0.343 | 0.337 |
| NCI-H727 | 0.653 | 0.686 | 0.599 | 0.603 | 0.627 | 0.681 | 0.584 | 0.566 | 0.476 | 0.535 | 0.863 | 0.737 | 0.515 | 0.285 | 0.335 | 0.4 | 0.311 | 0.268 | 0.291 | 0.244 |
| NCI-H838 | 0.43 | 0.403 | 0.309 | 0.424 | 0.379 | 0.253 | 0.256 | 0.175 | 0.138 | 0.138 | 0.684 | 0.503 | 0.22 | 0.174 | 0.16 | 0.365 | 0.236 | 0.253 | 0.138 | 0.189 |
| NCI-H1355 | 0.412 | 0.362 | 0.418 | 0.453 | 0.44 | 0.418 | 0.409 | 0.445 | 0.234 | 0.195 | 0.943 | 0.91 | 0.889 | 0.472 | 0.201 | 0.332 | 0.421 | 0.273 | 0.182 | 0.176 |
| NCI-H1395 | 0.679 | 0.561 | 0.648 | 0.704 | 0.649 | 0.726 | 0.679 | 0.528 | 0.357 | 0.354 | 0.951 | 0.818 | 0.538 | 0.41 | 0.362 | 0.626 | 0.969 | 0.425 | 0.313 | 0.339 |
| NCI-H1437 | 0.913 | 0.854 | 0.77 | 0.844 | 0.828 | 0.292 | 0.321 | 0.228 | 0.187 | 0.134 | 0.835 | 1.15 | 0.739 | 0.465 | 0.22 | 0.423 | 0.409 | 0.355 | 0.0891 | 0.081 |
| NCI-H1650 | 0.834 | 0.594 | 0.703 | 0.684 | 0.681 | 0.286 | 0.221 | 0.19 | 0.131 | 0.136 | 0.92 | 0.951 | 0.325 | 0.217 | 0.19 | 0.373 | 0.245 | 0.182 | 0.124 | 0.183 |
| NCI-H1651 | 0.718 | 0.755 | 0.699 | 0.789 | 0.697 | 0.521 | 0.54 | 0.569 | 0.374 | 0.191 | 0.74 | 0.754 | 0.656 | 0.436 | 0.173 | 0.706 | 0.514 | 0.45 | 0.0787 | 0.115 |
| NCI-H1666 | 0.886 | 0.868 | 0.986 | 0.789 | 0.822 | 0.553 | 0.549 | 0.693 | 0.492 | 0.46 | 1.02 | 0.696 | 0.541 | 0.304 | 0.346 | 0.404 | 0.478 | 0.247 | 0.159 | 0.156 |
| NCI-H1734 | 0.681 | 0.532 | 0.665 | 0.579 | 0.602 | 0.372 | 0.341 | 0.272 | 0.14 | 0.146 | 0.938 | 0.866 | 0.241 | 0.145 | 0.134 | 0.568 | 0.743 | 0.29 | 0.13 | 0.154 |
| NCI-H1755 | 0.747 | 0.725 | 0.75 | 0.8 | 0.689 | 0.4 | 0.442 | 0.314 | 0.209 | 0.257 | 0.979 | 0.804 | 0.421 | 0.243 | 0.184 | 0.221 | 0.358 | 0.287 | 0.134 | 0.139 |
